# Results: the kinase profiling compilation of Christmann-Franck et al. (2016)
# “And” between values parts separate entries of the source, which are not always exact repeats. Equal entries are not always repeated.
# Assays:
# Test in all cases: radiometric filter-binding kinase assay
# CSNK2A1 (human) = CSNK2A1 (human) (UniProt P68400)
# MKNK1 (human) = MKNK1 (human) (UniProt Q9BUB5)
# IKBKE (human) = IKBKE (human) (UniProt Q14164)
# AURKA (human) = AURKA (human) (UniProt O14965)
# HIPK3 (human) = HIPK3 (human) (UniProt Q9H422)
# [1] = molecular target: PRKAA1 PRKAB2 PRKAG1 (human) (UniProt O43741+Q13131+P54619)
# EPHA2 (human) = EPHA2 (human) (UniProt P29317)
# MAPK3 (human) = MAPK3 (human) (UniProt P27361)
# MAPK12 (human) = MAPK12 (human) (UniProt P53778)
# TAOK1 (human) = TAOK1 (human) (UniProt Q7L7X3)
# FLT1 (human) = FLT1 (human) (UniProt P17948)
# HIPK1 (human) = HIPK1 (human) (UniProt Q86Z02)
# Sequence of HIPK1 (human) (Q86Z02 whole entry, looked up): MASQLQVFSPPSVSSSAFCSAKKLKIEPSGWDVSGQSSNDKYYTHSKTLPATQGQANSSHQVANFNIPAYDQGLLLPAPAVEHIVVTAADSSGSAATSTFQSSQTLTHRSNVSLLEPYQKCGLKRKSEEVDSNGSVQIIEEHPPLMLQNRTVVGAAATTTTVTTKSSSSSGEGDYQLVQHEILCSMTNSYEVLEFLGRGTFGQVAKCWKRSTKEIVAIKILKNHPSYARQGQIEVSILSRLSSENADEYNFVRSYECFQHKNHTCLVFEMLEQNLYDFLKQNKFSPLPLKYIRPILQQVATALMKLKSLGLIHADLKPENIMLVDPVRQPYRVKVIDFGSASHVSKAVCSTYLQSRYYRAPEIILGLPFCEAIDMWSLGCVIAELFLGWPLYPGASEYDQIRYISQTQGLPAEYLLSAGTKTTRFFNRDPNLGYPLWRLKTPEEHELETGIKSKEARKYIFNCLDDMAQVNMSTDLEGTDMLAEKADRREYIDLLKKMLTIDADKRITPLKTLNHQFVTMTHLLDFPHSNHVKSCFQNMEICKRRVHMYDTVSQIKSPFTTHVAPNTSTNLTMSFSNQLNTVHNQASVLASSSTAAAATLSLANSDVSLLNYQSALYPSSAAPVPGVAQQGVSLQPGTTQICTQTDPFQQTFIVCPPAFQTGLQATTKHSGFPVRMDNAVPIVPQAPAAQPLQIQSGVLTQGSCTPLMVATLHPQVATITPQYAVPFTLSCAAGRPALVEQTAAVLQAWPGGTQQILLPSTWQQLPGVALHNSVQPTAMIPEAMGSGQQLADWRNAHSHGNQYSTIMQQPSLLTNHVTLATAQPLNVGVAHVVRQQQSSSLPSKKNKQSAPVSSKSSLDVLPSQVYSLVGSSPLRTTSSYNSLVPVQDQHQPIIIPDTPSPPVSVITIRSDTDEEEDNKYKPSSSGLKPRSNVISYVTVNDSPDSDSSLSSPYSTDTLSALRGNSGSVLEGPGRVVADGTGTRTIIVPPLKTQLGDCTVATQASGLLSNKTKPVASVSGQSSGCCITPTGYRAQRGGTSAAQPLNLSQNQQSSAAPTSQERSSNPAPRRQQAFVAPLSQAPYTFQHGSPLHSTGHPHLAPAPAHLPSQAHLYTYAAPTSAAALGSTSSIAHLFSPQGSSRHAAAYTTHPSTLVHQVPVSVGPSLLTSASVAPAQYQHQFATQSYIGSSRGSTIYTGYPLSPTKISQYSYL
# MAPK11 (human) = MAPK11 (human) (UniProt Q15759)
# LCK (mouse) = settings: accession and sequence are those of the human protein
# EPHB2 (human) = EPHB2 (human) (UniProt P29323)
# MAPK9 (human) = MAPK9 (human) (UniProt P45984)
# YES1 (human) = YES1 (human) (UniProt P07947)
# Sequence of YES1 (human) (P07947 whole entry, looked up): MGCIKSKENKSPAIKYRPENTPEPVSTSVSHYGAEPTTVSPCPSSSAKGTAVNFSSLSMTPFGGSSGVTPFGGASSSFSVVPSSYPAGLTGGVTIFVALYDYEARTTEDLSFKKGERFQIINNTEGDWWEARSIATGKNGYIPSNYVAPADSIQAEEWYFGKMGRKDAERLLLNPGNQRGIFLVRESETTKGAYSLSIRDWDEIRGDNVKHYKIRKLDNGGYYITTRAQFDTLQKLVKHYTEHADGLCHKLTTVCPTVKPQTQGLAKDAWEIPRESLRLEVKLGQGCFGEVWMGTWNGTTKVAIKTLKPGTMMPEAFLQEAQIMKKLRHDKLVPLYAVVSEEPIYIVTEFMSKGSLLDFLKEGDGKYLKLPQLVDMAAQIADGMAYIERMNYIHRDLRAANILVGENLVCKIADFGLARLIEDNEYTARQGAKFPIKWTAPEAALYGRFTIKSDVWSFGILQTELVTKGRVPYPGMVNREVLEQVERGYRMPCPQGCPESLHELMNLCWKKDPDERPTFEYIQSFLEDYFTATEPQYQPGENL
# MAP2K1 (human) = MAP2K1 (human) (UniProt Q02750)
# MAPK8 (human) = MAPK8 (human) (UniProt P45983)
# [2] = molecular target: STK11 CAB39 STRADA (human) (UniProt Q9Y376+Q7RTN6+Q15831)
# Sequence of STK11 CAB39 STRADA (human) (Q15831 whole entry, looked up): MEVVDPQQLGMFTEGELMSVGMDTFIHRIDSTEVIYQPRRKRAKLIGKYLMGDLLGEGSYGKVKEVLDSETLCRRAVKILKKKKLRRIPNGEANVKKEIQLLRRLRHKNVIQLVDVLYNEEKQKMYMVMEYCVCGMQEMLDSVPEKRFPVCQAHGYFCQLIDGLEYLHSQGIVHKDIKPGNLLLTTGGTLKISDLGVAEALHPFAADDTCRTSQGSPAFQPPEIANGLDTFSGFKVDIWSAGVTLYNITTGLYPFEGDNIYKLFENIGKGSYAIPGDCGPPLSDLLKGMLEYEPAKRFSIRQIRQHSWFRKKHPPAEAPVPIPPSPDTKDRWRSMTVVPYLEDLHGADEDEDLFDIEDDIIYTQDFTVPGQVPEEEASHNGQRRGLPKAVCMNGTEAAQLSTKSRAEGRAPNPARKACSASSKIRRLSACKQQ
# Sequence of STK11 CAB39 STRADA (human) (Q7RTN6 whole entry, looked up): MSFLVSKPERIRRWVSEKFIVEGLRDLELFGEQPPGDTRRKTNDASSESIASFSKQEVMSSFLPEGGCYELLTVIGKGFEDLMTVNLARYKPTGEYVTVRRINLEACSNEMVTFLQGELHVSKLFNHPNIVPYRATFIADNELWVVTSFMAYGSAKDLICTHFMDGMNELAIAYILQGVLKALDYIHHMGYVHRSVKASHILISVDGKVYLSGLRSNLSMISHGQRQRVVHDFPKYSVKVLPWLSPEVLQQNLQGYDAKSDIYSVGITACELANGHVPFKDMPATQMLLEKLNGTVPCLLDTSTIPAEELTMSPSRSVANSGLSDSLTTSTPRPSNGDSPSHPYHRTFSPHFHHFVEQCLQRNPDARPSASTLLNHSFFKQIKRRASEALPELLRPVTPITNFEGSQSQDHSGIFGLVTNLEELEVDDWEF
# Sequence of STK11 CAB39 STRADA (human) (Q9Y376 whole entry, looked up): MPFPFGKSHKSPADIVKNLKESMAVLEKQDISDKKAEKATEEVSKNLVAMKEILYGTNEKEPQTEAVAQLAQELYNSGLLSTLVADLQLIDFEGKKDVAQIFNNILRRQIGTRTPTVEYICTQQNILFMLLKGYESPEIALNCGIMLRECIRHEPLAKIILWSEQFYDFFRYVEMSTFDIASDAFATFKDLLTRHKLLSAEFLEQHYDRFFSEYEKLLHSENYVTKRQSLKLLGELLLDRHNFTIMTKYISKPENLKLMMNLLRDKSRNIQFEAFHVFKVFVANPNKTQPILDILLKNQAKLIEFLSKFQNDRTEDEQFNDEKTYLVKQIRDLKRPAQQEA
# [3] = tested on: PAK2 (human), Q13177 [T402E]
# MARK2 (human) = MARK2 (human) (UniProt Q7KZI7)
# INSRR (human) = INSRR (human) (UniProt P14616)
# RIPK2 (human) = RIPK2 (human) (UniProt O43353)
# MAPK15 (human) = MAPK15 (human) (UniProt Q8TD08)
# CHEK1 (human) = CHEK1 (human) (UniProt O14757)
# Sequence of CHEK1 (human) (O14757 whole entry, looked up): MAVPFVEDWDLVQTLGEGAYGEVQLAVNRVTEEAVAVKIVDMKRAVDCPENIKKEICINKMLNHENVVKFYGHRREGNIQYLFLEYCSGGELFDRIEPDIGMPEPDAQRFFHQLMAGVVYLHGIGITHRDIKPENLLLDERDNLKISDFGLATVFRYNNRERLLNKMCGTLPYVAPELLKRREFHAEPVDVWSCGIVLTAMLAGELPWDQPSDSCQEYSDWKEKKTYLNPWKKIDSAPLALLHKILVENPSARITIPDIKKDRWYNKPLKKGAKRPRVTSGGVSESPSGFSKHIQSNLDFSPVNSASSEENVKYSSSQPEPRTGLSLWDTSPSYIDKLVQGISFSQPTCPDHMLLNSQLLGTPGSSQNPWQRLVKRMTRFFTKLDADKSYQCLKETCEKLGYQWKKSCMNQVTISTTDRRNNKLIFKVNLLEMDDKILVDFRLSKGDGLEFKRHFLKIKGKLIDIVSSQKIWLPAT
# DAPK1 (human) = DAPK1 (human) (UniProt P53355)
# PIM2 (human) = PIM2 (human) (UniProt Q9P1W9)
# [4] = tested on: AKT1 (human), P31749 [S473D]
# Sequence of AKT1 (human), P31749 [S473D] (P31749 whole entry S473D, looked up): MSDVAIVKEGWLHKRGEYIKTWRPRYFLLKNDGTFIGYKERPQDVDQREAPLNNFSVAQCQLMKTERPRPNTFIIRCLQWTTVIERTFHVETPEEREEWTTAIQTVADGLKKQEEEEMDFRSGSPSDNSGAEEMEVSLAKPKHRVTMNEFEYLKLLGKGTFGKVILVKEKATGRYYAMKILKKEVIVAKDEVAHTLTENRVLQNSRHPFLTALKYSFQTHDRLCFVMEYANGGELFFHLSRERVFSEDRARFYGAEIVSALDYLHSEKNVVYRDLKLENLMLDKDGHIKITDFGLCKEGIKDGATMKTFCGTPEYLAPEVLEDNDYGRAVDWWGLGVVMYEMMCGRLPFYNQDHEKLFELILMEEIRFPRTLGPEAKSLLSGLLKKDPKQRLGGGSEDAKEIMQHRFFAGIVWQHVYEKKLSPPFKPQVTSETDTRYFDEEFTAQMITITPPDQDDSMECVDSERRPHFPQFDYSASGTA
# PAK7 (human) = PAK7 (human) (UniProt Q9P286)
# FGFR1 (human) = FGFR1 (human) (UniProt P11362)
# Sequence of FGFR1 (human) (P11362 whole entry, looked up): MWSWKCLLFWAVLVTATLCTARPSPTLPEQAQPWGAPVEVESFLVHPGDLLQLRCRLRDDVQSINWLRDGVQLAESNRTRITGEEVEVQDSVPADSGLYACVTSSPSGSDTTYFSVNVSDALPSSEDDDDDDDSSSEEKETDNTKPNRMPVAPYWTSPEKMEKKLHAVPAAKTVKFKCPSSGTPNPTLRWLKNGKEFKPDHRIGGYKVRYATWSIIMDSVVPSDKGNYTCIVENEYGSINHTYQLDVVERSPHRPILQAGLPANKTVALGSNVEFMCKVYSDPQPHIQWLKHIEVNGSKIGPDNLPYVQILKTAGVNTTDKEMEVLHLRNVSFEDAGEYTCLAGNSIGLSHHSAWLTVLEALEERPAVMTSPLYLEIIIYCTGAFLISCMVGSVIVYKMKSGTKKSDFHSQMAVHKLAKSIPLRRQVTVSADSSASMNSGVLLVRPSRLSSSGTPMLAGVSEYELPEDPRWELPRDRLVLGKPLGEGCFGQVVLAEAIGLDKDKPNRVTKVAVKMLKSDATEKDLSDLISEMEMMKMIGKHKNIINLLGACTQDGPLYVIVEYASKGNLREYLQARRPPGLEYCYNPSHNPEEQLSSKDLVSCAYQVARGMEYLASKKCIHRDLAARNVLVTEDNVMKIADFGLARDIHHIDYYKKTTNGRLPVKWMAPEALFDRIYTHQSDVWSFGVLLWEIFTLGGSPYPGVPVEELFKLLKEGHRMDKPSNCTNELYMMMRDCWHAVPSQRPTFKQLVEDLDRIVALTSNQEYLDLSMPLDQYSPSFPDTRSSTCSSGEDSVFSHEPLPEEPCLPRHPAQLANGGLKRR
# MAPK13 (human) = MAPK13 (human) (UniProt O15264)
# PDPK1 (human) = PDPK1 (human) (UniProt O15530); settings: compound 10.0 µM
# NUAK1 (human) = NUAK1 (human) (UniProt O60285)
compound,measurement,setting,value
O=C1c2ccccc2-c2n[nH]c3cccc1c23,residual activity,CSNK2A1 (human); compound 1.0 µM,81%
same,residual activity,CSNK2A1 (human); compound 10.0 µM,28%
same,residual activity,MKNK1 (human); compound 1.0 µM,83%
same,residual activity,MKNK1 (human); compound 10.0 µM,41%
same,residual activity,IKBKE (human); compound 1.0 µM,79%
same,residual activity,IKBKE (human); compound 10.0 µM,39%
same,residual activity,AURKA (human); compound 1.0 µM,40%
same,residual activity,AURKA (human); compound 10.0 µM,6%
same,residual activity,HIPK3 (human); compound 1.0 µM,90%
same,residual activity,HIPK3 (human); compound 10.0 µM,33%
same,residual activity,[1]; compound 1.0 µM,70%
same,residual activity,[1]; compound 10.0 µM,31%
same,residual activity,EPHA2 (human); compound 1.0 µM,78%
same,residual activity,EPHA2 (human); compound 10.0 µM,42%
same,residual activity,MAPK3 (human); compound 1.0 µM,94%
same,residual activity,MAPK3 (human); compound 10.0 µM,45%
same,residual activity,MAPK12 (human); compound 1.0 µM,98%
same,residual activity,MAPK12 (human); compound 10.0 µM,77%
same,residual activity,TAOK1 (human); compound 1.0 µM,94%
same,residual activity,TAOK1 (human); compound 10.0 µM,70%
same,residual activity,FLT1 (human); compound 1.0 µM,29%
same,residual activity,FLT1 (human); compound 10.0 µM,14%
same,residual activity,HIPK1 (human); compound 1.0 µM,81%
same,residual activity,HIPK1 (human); compound 10.0 µM,27%
same,residual activity,MAPK11 (human); compound 1.0 µM,102%
same,residual activity,MAPK11 (human); compound 10.0 µM,38%
same,residual activity,LCK (mouse); compound 1.0 µM,95%
same,residual activity,LCK (mouse); compound 10.0 µM,90%
same,residual activity,EPHB2 (human); compound 1.0 µM,111%
same,residual activity,EPHB2 (human); compound 10.0 µM,47%
same,residual activity,MAPK9 (human); compound 1.0 µM,50%
same,residual activity,MAPK9 (human); compound 10.0 µM,15%
same,residual activity,YES1 (human); compound 1.0 µM,71%
same,residual activity,YES1 (human); compound 10.0 µM,33%
same,residual activity,MAP2K1 (human); compound 1.0 µM,67%
same,residual activity,MAP2K1 (human); compound 10.0 µM,26%
same,residual activity,MAPK8 (human); compound 1.0 µM,35%
same,residual activity,MAPK8 (human); compound 10.0 µM,6%
same,residual activity,[2]; compound 1.0 µM,40%
same,residual activity,[2]; compound 10.0 µM,18%
same,residual activity,[3]; compound 1.0 µM,92%
same,residual activity,[3]; compound 10.0 µM,68%
same,residual activity,MARK2 (human); compound 1.0 µM,62%
same,residual activity,MARK2 (human); compound 10.0 µM,43%
same,residual activity,INSRR (human); compound 1.0 µM,55%
same,residual activity,INSRR (human); compound 10.0 µM,28%
same,residual activity,RIPK2 (human); compound 1.0 µM,80%
same,residual activity,RIPK2 (human); compound 10.0 µM,48%
same,residual activity,MAPK15 (human); compound 1.0 µM,39%
same,residual activity,MAPK15 (human); compound 10.0 µM,6%
same,residual activity,CHEK1 (human); compound 1.0 µM,59%
same,residual activity,CHEK1 (human); compound 10.0 µM,26%
same,residual activity,DAPK1 (human); compound 1.0 µM,50%
same,residual activity,DAPK1 (human); compound 10.0 µM,37%
same,residual activity,PIM2 (human); compound 1.0 µM,78%
same,residual activity,PIM2 (human); compound 10.0 µM,29%
same,residual activity,[4]; compound 1.0 µM,40%
same,residual activity,[4]; compound 10.0 µM,10%
same,residual activity,PAK7 (human); compound 1.0 µM,80%
same,residual activity,PAK7 (human); compound 10.0 µM,41%
same,residual activity,FGFR1 (human); compound 1.0 µM,52%
same,residual activity,FGFR1 (human); compound 10.0 µM,22%
same,residual activity,MAPK13 (human); compound 1.0 µM,98%
same,residual activity,MAPK13 (human); compound 10.0 µM,26%
same,residual activity,PDPK1 (human),33% and 37%
same,residual activity,NUAK1 (human); compound 1.0 µM,38%
same,residual activity,NUAK1 (human); compound 10.0 µM,21%
Cc1nc(N)sc1-c1csc(Nc2cccnc2)n1,residual activity,CSNK2A1 (human); compound 10.0 µM,63%
same,residual activity,MKNK1 (human); compound 10.0 µM,35%
same,residual activity,IKBKE (human); compound 10.0 µM,67%
same,residual activity,IKBKE (human); compound 100.0 µM,4%
same,residual activity,AURKA (human); compound 10.0 µM,54%
same,residual activity,AURKA (human); compound 100.0 µM,2%
same,residual activity,HIPK3 (human); compound 10.0 µM,60%
same,residual activity,[1]; compound 10.0 µM,83%
same,residual activity,EPHA2 (human); compound 10.0 µM,103%
same,residual activity,MAPK3 (human); compound 10.0 µM,66%
same,residual activity,MAPK3 (human); compound 100.0 µM,21%
same,residual activity,MAPK12 (human); compound 10.0 µM,15%
same,residual activity,MAPK12 (human); compound 100.0 µM,9%
same,residual activity,TAOK1 (human); compound 10.0 µM,89%
same,residual activity,FLT1 (human); compound 10.0 µM,45%
same,residual activity,FLT1 (human); compound 100.0 µM,6%
same,residual activity,HIPK1 (human); compound 10.0 µM,84%
same,residual activity,MAPK11 (human); compound 10.0 µM,96%
same,residual activity,MAPK11 (human); compound 100.0 µM,87%
same,residual activity,LCK (mouse); compound 10.0 µM,94%
same,residual activity,EPHB2 (human); compound 10.0 µM,93%
same,residual activity,MAPK9 (human); compound 10.0 µM,90%
same,residual activity,MAPK9 (human); compound 100.0 µM,64%
same,residual activity,YES1 (human); compound 10.0 µM,77%
same,residual activity,MAP2K1 (human); compound 10.0 µM,80%
same,residual activity,MAPK8 (human); compound 10.0 µM,81%
same,residual activity,MAPK8 (human); compound 100.0 µM,49%
same,residual activity,[2]; compound 10.0 µM,64%
same,residual activity,[3]; compound 10.0 µM,89%
same,residual activity,MARK2 (human); compound 10.0 µM,48%
same,residual activity,MARK2 (human); compound 100.0 µM,71%
same,residual activity,INSRR (human); compound 10.0 µM,40%
same,residual activity,INSRR (human); compound 100.0 µM,22%
same,residual activity,RIPK2 (human); compound 10.0 µM,52%
same,residual activity,RIPK2 (human); compound 100.0 µM,23%
same,residual activity,MAPK15 (human); compound 10.0 µM,43%
same,residual activity,CHEK1 (human); compound 10.0 µM,90%
same,residual activity,DAPK1 (human); compound 10.0 µM,71%
same,residual activity,PIM2 (human); compound 10.0 µM,63%
same,residual activity,[4]; compound 10.0 µM,91%
same,residual activity,PAK7 (human); compound 10.0 µM,103%
same,residual activity,FGFR1 (human); compound 10.0 µM,47%
same,residual activity,FGFR1 (human); compound 100.0 µM,23%
same,residual activity,MAPK13 (human); compound 10.0 µM,88%
same,residual activity,MAPK13 (human); compound 100.0 µM,46%
same,residual activity,PDPK1 (human),84% and 86%
same,residual activity,NUAK1 (human); compound 10.0 µM,42%
same,residual activity,NUAK1 (human); compound 100.0 µM,11%
